The numbers were not newly measured in patent publication US20130331575A1, “Method for resolution of 4-((1R,3S)-6-chloro-3-phenyl-indan-1-yl)-1,2,2-trimethyl-piperazine and 1-((1R,3S)-6-chloro-3-phenyl-indan-1-yl)-3,3-dimethyl-piperazine” (priority 2011, published 2013), which cites them from elsewhere.

Series [1] relates to α1 adrenoceptors.
The target of series [2] is 5-HT2 (Homo sapiens, UniProt P28223).
The test system of series [3] is D1 and D2. The note with it: in vivo.
Series [4] addresses D1 (Homo sapiens, UniProt P21728). The note with it: in vitro.
The target of series [5] is D2 (Homo sapiens, UniProt P14416). The note with it: in vitro.
Chain of D2 (P14416 whole entry): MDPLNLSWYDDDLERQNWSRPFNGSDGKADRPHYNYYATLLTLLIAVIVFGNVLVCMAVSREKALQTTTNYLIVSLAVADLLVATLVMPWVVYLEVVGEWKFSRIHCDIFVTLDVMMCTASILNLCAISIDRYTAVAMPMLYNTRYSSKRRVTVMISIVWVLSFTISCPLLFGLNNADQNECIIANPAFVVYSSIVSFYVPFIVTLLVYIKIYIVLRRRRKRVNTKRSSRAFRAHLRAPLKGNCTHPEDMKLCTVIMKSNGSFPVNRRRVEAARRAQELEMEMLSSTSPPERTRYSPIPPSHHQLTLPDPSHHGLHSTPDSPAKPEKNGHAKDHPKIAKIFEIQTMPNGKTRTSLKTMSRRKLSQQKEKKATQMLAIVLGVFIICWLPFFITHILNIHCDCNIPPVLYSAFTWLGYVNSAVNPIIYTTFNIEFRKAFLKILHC

Chain of D1 (P21728 whole entry): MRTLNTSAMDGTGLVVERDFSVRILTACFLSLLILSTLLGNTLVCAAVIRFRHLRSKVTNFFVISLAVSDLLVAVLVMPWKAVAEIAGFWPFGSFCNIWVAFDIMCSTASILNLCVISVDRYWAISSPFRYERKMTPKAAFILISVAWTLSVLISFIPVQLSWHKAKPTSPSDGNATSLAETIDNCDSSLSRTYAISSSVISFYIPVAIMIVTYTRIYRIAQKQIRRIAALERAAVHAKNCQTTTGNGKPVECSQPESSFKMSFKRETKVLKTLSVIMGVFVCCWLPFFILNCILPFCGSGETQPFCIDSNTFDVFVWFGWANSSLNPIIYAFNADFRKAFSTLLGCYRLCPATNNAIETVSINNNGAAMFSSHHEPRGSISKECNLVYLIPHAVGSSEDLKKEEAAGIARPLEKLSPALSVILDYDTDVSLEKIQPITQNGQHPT
Chain of 5-HT2 (P28223 whole entry, species assumed): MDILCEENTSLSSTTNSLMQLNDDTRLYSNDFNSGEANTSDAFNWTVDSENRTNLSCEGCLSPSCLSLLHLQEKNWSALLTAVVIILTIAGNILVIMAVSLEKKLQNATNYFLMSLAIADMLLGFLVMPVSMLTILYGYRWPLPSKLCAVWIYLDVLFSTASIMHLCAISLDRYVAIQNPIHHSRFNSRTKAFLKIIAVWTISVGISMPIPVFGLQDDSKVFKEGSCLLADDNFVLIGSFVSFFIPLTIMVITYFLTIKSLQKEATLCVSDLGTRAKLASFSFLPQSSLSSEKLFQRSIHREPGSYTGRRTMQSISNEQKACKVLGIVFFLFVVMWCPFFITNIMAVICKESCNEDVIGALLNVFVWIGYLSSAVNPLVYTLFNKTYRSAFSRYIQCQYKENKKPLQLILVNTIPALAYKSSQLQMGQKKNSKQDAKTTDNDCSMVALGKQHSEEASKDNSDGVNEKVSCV

With `CN1CCN([C@@H]2C[C@@H](c3ccccc3)c3ccc(Cl)cc32)CC1(C)C` [Compound (I), 4-((1R,3S)-6-chloro-3-phenyl-indan-1-yl)-1,2,2-trimethyl-piperazine], the “affinity for α1 adrenoceptors” value in series [1] is given as “high affinity”. For the same molecule, the 5-HT2 antagonist potency result in series [2] was “potent 5-HT2 antagonist”. Besides, in series [3], the “relative potency as D1 and D2 antagonist” value is “equipotent as D1 and D2 antagonist”. Further, in series [4], the D1 antagonist potency result is “potent” and the “D1 versus D2 selectivity” value is “some D1 selectivity”. Also, in series [5], the D2 antagonist potency result is listed as “potent”.
